Experimental data as given in patent publication US20240158391A1, “DERIVATIVES OF 4-(IMIDAZO[1,2-A]PYRIDIN-3-YL)-N-(PYRIDIN-3-YL) PYRIMIDIN-2- AMINE FOR TREATING PROLIFERATIVE DISEASES AND CONDITIONS” (AUCENTRA THERAPEUTICS PTY LTD, priority 2019, published 2024).

How the values were obtained:
CDK1/CyclinB = CDK1/CyclinB (Homo sapiens, UniProt P06493); test: ADP Glo kinase assay, CDK1/CyclinB; type: biochemical; conditions: compound at 1 μM, read-out: Residual enzymatic activity (%) at 1 μM, CDK1 B
How it was run: (§1)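 Test compounds were run as 1:3 serial dilutions over 10 concentrations (10-0.0005 μM) in 0.5% DMSO. Kinase reactions proceeded for an optimised time at room temperature before being stopped with ADP Glo reagent.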

CDK2/CyclinA2 = CDK2/CyclinA2 (Homo sapiens, UniProt P24941); test: ADP Glo kinase assay, CDK2/CyclinA2; type: biochemical; conditions: for remaining activity at 1 µM: compound at 1 μM, read-out: Residual enzymatic activity (%) at 1 μM, CDK2 A; for Ki: Km ATP, read-out: Enzymatic inhibition, Ki, CDK2 A
How it was run: as §1

CDK4/CyclinD1 = CDK4/CyclinD1 (Homo sapiens, UniProt P11802); test: ADP Glo kinase assay, CDK4/CyclinD1; type: biochemical; conditions: compound at 1 μM, read-out: Residual enzymatic activity (%) at 1 μM, CDK4 D1
How it was run: as §1

CDK6/CyclinD3 = CDK6/CyclinD3 (Homo sapiens, UniProt Q00534); test: ADP Glo kinase assay, CDK6/CyclinD3; type: biochemical; conditions: for remaining activity at 1 µM: compound at 1 μM, read-out: Residual enzymatic activity (%) at 1 μM, CDK6 D3
How it was run: as §1

CDK7/CyclinH/Mat1 = CDK7/CyclinH/Mat1 (Homo sapiens, UniProt P50613); test: ADP Glo kinase assay, CDK7/CyclinH/Mat1; type: biochemical; conditions: for remaining activity at 1 µM: compound at 1 μM, read-out: Residual enzymatic activity (%) at 1 μM, CDK7 H; for Ki: Km ATP, read-out: Enzymatic inhibition, Ki, CDK7 H
How it was run: as §1

CDK9/CyclinT1 = CDK9/CyclinT1 (Homo sapiens, UniProt P50750); test: ADP Glo kinase assay, CDK9/CyclinT1; type: biochemical; conditions: CDK9/CyclinT1; Km ATP; read-out: Enzymatic inhibition, Ki, CDK9 T1
How it was run: as §1

FLT3-ITD = target: T1, FLT3-ITD (Homo sapiens, UniProt P36888); test: ADP Glo kinase assay, FLT3-ITD; type: biochemical; conditions: Km ATP 100 μM, read-out: Enzymatic inhibition, Ki, FLT3-ITD
T1 sequence (P36888 1-993): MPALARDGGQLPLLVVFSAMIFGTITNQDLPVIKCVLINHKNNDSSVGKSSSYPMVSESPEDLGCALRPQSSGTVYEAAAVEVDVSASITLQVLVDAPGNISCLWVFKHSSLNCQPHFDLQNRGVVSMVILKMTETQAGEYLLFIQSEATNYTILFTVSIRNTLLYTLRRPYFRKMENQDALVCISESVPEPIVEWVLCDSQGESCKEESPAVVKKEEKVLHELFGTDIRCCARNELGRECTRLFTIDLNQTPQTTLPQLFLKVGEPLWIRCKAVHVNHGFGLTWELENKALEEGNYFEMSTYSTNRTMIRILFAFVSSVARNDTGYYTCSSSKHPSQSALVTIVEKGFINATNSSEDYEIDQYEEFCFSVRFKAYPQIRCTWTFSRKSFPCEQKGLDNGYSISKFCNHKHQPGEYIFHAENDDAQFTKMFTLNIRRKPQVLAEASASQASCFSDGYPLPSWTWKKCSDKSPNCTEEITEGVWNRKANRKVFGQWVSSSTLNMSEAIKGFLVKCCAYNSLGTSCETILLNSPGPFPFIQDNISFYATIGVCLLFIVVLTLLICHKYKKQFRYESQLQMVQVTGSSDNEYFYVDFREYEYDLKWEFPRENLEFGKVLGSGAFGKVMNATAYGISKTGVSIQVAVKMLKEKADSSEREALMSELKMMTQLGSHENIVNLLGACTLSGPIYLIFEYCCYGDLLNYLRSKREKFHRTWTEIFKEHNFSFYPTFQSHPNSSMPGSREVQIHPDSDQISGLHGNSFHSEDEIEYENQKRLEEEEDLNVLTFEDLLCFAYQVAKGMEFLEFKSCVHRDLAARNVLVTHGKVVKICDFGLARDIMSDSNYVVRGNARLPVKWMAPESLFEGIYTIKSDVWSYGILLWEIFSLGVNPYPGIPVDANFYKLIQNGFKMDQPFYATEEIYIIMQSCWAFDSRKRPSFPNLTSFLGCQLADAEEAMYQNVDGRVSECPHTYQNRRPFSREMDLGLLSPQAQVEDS
How it was run: as §1

MV-4-11 = test: Proliferation assay (resazurin, leukemia cell lines), MV-4-11; type: cell-based; conditions: Homo sapiens, MV4-11, read-out: 72 h Growth inhibition GI50, MV-4-11 cells
From the text: The following compounds were used as comparators.

CDK7/CyclinH/Mat1, sequence (P50613 whole entry, species assumed): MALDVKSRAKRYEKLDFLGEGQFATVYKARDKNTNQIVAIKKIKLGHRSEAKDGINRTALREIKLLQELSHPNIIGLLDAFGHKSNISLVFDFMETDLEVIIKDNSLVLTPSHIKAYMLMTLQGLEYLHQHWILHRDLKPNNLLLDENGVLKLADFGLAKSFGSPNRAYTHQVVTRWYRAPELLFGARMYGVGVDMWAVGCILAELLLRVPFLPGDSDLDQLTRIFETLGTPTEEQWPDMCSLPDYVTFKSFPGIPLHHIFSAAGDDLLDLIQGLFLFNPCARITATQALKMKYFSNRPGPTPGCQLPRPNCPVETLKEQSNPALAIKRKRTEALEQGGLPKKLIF
CDK7/CyclinH/Mat1, sequence (P51946 whole entry partner, species assumed): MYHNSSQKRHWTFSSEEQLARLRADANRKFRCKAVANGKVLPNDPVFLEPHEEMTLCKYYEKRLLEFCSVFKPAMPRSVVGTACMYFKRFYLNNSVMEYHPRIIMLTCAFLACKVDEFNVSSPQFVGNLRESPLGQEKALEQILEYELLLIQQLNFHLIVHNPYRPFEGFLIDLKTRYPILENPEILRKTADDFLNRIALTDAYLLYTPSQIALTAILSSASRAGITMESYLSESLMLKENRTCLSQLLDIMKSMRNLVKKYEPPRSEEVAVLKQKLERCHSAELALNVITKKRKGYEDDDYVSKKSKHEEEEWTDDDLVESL
CDK7/CyclinH/Mat1, sequence (P51948 whole entry partner, species assumed): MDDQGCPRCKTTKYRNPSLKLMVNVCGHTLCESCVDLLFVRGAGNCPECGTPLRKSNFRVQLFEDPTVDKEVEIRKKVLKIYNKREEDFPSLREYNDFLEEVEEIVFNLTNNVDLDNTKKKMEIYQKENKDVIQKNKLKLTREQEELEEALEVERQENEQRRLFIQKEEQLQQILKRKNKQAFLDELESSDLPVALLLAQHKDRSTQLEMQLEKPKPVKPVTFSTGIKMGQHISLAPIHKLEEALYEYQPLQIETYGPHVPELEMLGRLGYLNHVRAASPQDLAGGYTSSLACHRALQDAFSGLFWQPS
CDK1/CyclinB, sequence (P06493 whole entry, species assumed): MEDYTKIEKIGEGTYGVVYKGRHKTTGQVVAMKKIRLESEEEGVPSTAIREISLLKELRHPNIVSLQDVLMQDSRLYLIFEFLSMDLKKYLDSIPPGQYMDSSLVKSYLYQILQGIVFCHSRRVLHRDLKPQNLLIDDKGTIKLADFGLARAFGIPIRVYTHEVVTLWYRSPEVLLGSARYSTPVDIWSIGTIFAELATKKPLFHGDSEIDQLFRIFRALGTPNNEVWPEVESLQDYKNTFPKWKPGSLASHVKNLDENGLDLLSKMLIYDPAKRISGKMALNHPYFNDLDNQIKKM
CDK1/CyclinB, sequence (P14635 whole entry partner, species assumed): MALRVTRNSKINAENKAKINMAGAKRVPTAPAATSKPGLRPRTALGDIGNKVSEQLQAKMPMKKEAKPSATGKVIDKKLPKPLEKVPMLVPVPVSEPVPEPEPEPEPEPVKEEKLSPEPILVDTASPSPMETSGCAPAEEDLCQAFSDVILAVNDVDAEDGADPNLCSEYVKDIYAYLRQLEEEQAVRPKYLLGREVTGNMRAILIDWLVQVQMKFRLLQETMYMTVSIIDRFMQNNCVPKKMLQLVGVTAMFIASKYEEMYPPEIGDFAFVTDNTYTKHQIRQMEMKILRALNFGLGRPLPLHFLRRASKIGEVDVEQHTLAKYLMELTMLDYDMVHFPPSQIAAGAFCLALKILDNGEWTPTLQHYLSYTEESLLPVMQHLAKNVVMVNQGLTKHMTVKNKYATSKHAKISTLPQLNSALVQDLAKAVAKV
CDK9/CyclinT1, sequence (P50750 whole entry, species assumed): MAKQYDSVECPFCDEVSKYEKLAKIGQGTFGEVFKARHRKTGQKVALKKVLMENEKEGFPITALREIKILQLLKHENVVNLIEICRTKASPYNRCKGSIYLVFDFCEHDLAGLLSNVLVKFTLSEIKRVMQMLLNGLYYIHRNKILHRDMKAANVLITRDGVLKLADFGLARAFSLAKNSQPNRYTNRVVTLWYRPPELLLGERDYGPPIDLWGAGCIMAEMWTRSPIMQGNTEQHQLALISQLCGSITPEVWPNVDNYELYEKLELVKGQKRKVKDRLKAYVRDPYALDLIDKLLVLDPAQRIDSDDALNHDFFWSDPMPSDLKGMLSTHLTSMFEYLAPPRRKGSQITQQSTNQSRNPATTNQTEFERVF
CDK9/CyclinT1, sequence (O60563 whole entry partner, species assumed): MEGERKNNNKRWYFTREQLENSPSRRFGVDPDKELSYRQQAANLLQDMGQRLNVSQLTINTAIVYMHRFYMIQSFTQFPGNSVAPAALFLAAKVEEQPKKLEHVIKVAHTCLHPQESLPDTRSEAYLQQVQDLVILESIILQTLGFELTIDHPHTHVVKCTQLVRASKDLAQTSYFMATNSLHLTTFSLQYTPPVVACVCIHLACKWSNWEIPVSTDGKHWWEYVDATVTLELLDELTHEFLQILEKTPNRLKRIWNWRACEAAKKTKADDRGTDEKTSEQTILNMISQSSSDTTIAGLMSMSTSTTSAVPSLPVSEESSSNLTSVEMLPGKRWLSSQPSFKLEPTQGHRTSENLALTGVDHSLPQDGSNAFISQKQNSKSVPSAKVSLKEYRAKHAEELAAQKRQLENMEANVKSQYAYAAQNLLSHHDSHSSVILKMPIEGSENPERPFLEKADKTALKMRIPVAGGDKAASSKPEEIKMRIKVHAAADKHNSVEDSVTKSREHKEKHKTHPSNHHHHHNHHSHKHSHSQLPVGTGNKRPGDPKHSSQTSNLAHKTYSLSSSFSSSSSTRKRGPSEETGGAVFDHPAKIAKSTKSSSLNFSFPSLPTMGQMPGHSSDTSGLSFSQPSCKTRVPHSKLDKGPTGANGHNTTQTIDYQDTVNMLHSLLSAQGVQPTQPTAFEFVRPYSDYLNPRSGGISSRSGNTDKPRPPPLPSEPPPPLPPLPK
CDK4/CyclinD1, sequence (P11802 whole entry, species assumed): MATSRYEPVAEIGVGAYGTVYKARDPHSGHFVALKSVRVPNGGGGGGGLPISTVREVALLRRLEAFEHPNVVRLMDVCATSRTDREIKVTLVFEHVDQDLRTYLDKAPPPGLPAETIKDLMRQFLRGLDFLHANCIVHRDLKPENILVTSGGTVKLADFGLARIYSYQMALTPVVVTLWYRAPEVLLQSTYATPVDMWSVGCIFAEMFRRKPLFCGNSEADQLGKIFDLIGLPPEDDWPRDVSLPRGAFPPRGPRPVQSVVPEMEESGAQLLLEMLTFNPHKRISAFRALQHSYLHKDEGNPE
CDK4/CyclinD1, sequence (P24385 whole entry partner, species assumed): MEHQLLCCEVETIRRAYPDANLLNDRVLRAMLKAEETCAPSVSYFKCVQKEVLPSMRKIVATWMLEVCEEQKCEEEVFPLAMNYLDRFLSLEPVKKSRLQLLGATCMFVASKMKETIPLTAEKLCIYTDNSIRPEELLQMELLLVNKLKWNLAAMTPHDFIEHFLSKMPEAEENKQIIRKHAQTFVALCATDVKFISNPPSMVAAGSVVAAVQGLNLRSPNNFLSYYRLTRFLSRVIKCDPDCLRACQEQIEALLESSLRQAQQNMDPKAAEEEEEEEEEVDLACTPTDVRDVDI
CDK6/CyclinD3, sequence (Q00534 whole entry, species assumed): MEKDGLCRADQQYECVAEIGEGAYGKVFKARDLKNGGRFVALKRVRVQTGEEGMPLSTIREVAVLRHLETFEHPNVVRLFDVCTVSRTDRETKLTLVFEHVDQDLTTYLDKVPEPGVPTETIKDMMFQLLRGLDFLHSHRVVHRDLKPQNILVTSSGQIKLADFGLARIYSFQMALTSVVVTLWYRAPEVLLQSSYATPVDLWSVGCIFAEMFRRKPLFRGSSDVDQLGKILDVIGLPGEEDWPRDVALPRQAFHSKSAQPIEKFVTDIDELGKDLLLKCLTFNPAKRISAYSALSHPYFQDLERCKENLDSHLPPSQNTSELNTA
CDK6/CyclinD3, sequence (P30281 whole entry partner, species assumed): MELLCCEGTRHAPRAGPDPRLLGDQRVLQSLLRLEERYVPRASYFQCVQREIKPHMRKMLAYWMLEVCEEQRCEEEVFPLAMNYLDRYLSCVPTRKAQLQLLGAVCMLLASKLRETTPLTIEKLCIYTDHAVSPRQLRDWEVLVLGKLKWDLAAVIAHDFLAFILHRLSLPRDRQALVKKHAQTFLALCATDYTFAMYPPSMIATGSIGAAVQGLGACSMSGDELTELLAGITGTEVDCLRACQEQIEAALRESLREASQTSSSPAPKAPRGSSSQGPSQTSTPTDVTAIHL

Compound	remaining activity at 1 µM (CDK1/CyclinB) [%]	remaining activity at 1 µM (CDK2/CyclinA2) [%]	remaining activity at 1 µM (CDK4/CyclinD1) [%]	remaining activity at 1 µM (CDK6/CyclinD3) [%]	remaining activity at 1 µM (CDK7/CyclinH/Mat1) [%]	Ki (CDK9/CyclinT1) [nM]	Ki (FLT3-ITD) [nM]	GI50 (MV-4-11) [nM]	Ki (CDK6/CyclinD3; Km ATP, read-out: Enzymatic inhibition, Ki, CDK6 D3) [nM]	Ki (CDK2/CyclinA2) [nM]	Ki (CDK7/CyclinH/Mat1) [nM]
CCS(=O)(=O)N1CCN(c2ccc(Nc3nccc(-c4cnc5ccc(Br)cn45)n3)cn2)CC1 [Compound 59, 4-(6-Bromoimidazo[1,2-a]pyridin-3-yl)-N-(6-(4-(ethylsulfonyl)piperazin-1-yl)pyridin-3-yl)pyrimidin-2-amine]	70	44	52	49	88	234	86	32			
CN(C)c1ccc(Nc2nccc(-c3cnc4ccc(Br)cn34)n2)cn1 [Compound 65, N^5-(4-(6-Bromoimidazo[1,2-a]pyridin-3-yl)pyrimidin-2-yl)-N^2,N^2-dimethylpyridine-2,5-diamine]	56	39	86		71	142	24	41	159		
O=C1NCCC12CCN(c1ccc(Nc3nccc(-c4cnc5ccc(-c6cnn(C(F)F)c6)cn45)n3)cn1)CC2 [Compound 73, 8-(5-((4-(6-(1-(Difluoromethyl)-1H-pyrazol-4-yl)imidazo[1,2-a]pyridin-3-yl)pyrimidin-2-yl)amino)pyridin-2-yl)-2,8-diazaspiro[4.5]decan-1-one]	73	80	82	97	83	> 500	116	14			
CCCNc1ccc(Nc2nccc(-c3cnc4ccc(Br)cn34)n2)cn1 [Compound 74, N^5-(4-(6-Bromoimidazo[1,2-a]pyridin-3-yl)pyrimidin-2-yl)-N^2-propylpyridine-2,5-diamine]	82	41	54	86	78	102	40	20			
CCCNc1ccc(Nc2nccc(-c3cnc4ccc(-c5ccccc5)cn34)n2)cn1 [Compound 75, N^5-(4-(6-Phenylimidazo[1,2-a]pyridin-3-yl)pyrimidin-2-yl)-N^2-propylpyridine-2,5-diamine]	89	100	89	93	80	368	160	78			
CCCNc1ccc(Nc2nccc(-c3cnc4ccc(-c5cnn(C(F)F)c5)cn34)n2)cn1 [Compound 76, N^5-(4-(6-(1-(Difluoromethyl)-1H-pyrazol-4-yl)imidazo[1,2-a]pyridin-3-yl)pyrimidin-2-yl)-N^2-propylpyridine-2,5-diamine]	96	62	97	71	57	629	100	39			
CN1CCN(Cc2ccc(Nc3nccc(-c4cnc5ccc(Br)cn45)n3)cn2)CC1 [Compound 77, 4-(6-Bromoimidazo[1,2-a]pyridin-3-yl)-N-(6-((4-methylpiperazin-1-yl)methyl)pyridin-3-yl)pyrimidin-2-amine]	74		52	48	40	51	70	35		40	
CN1CCN(Cc2ccc(Nc3nccc(-c4cnc5ccc(-c6ccccc6)cn45)n3)cn2)CC1 [Compound 78, N-(6-((4-Methylpiperazin-1-yl)methyl)pyridin-3-yl)-4-(6-phenylimidazo[1,2-a]pyridin-3-yl)pyrimidin-2-amine]	99	46	95	64	38	65	90	105			
CCN1CCN(Cc2ccc(Nc3nccc(-c4cnc5ccc(Br)cn45)n3)cn2)CC1 [Compound 79, 4-(6-Bromoimidazo[1,2-a]pyridin-3-yl)-N-(6-((4-ethylpiperazin-1-yl)methyl)pyridin-3-yl)pyrimidin-2-amine]	70		48	27		57	70	38		42	168
CCN1CCN(Cc2ccc(Nc3nccc(-c4cnc5ccc(-c6ccccc6)cn45)n3)cn2)CC1 [Compound 80, N-(6-((4-Ethylpiperazin-1-yl)methyl)pyridin-3-yl)-4-(6-phenylimidazo[1,2-a]pyridin-3-yl)pyrimidin-2-amine]	92	37	81	59		60	60	102			222
CN(C)C1CCN(Cc2ccc(Nc3nccc(-c4cnc5ccc(Br)cn45)n3)cn2)CC1 [Compound 81, 4-(6-Bromoimidazo[1,2-a]pyridin-3-yl)-N-(6-((4-(dimethylamino)piperidin-1-yl)methyl)pyridin-3-yl)pyrimidin-2-amine]	84		47	22		143	70	98		41	205
COC(=O)c1ccc(Nc2nccc(-c3cnc4ccc(Br)cn34)n2)cn1 [Compound 82, Methyl 5-((4-(6-bromoimidazo[1,2-a]pyridin-3-yl)pyrimidin-2-yl)amino)picolinate]	90		94	99	93	163	180	262		52	
